A word on the IC50: it is the point on the concentration scale where inhibition reaches its midpoint.

One data set concerns the target MCT4 (Homo sapiens (Human), UniProt O15427). Description: Assay 3: MCT4-mediated lactate transport in MDA-MB-231 breast cancer cells. Type of data set: cell-based. The following applies: MDA-MB-231 cells; lactate transport. Summed up: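 Read-out is BCECF fluorescence tracking the intracellular pH shift from MCT4-mediated lactate/H+ co-transport. Before measurement, MDA-MB-231 cells take up BCECF-AM for 5 min at 37° C, then are washed into Tyrode's Solution, pH 7.4.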

Another data set addresses MCT1 (Homo sapiens (Human), UniProt P53985). In words: Assay 4: MCT1-mediated lactate transport in BT20 breast cancer cells. The class given is cell-based. Conditions: Table 27. In short, it runs like this:
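Transport started with 10 mM L-lactate on BCECF-loaded BT20 cells in Tyrode's Solution, pH 7.4. Dye loading: BCECF-AM ester (30 mM DMSO stock), 5 min at 37° C, then one wash.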

A short description of data set [1]: Metabolic stability in human liver microsomes (in vitro t1/2). Type of data set: in vitro ADME. The following applies: for half-life at 2 µM: human liver microsomes 0.5 mg/mL, 2 μM compound, read-out: Human microsome t1/2, min; for Human microsome % 60 min: human liver microsomes. Summed up: (§1)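 Test compound (2 μM final) was added to NADPH-supplemented microsomes at 0.5 mg/mL protein and sampled over 60 min (0–60 min time points). In vitro t1/2 was calculated as −0.693/k, with k the slope of ln percent parent remaining, measured by LC-MS/MS, against time.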
For orientation: Microsomes from liver hold many membrane-bound enzymes, among them those of drug oxidation.

The nature of data set [2]: Metabolic stability in rat liver microsomes (in vitro t1/2). The class given is in vitro ADME. The following applies: for half-life at 2 µM: read-out: Rat microsome t1/2, min; for Rat microsome % 60 min: rat liver microsomes. In short, it runs like this: as §1
The nature of data set [3]: Metabolic stability in mouse liver microsomes (in vitro t1/2). Type of data set: in vitro ADME. Conditions: for Mouse microsome t1/2, min / half-life at 2 µM: mouse liver microsomes 0.5 mg/mL, 2 μM compound; for Mouse microsome % 60 min: mouse liver microsomes; for half-life at 2 µM: read-out: Mouse microsome t1/2, min. Summed up:
as §1

Data set [4] in a line: Pharmacokinetic assay in rat (IV 3 mg/kg, PO 10 mg/kg). Type of data set: in vivo. The following applies: Male Sprague-Dawley rat; for Rat F: oral bioavailability; for Rat F / half-life: PO 10 mg/kg; for half-life / Vd: plasma; for half-life: read-out: Rat t1/2 (converted); for Vd: volume of distribution, read-out: Rat Vss. An excerpt:
(§2) The following are assays that may be used to evaluate the pharmacokinetic properties of Formula (I) in mouse or rat. The assays follow a common procedure recited below.
(§3) 1. […] For PO (oral gavage), DMSO/PEG400 (10:90). Formulations freshly prepared on the day of dosing or prior to dosing. Storage at room temperature.
(§4) 2. Test Species: For Mouse: Male CD1 strain, approximately 6-8 weeks in age, approximately 20-30 g. For Rat: Male Sprague-Dawley strain, approximately 6-8 weeks in age, approximately 200-300 g.
(§5) 3. Dose Level: For IV, 3 mg/kg. For PO, 10 mg/kg.
(§6) 4. Number of animals: 3 per assay.
(§7) 5. PK time points: For IV (plasma): 5 min, 15 min, 1, 2, 4, 6, 8, 24 h post dose. For PO (plasma): 15 min, 30 min, 1, 2, 4, 6, 8, 24 h post dose.
(§8) 6. Blood Sample Collection and Processing. Blood was collected (˜0.2 mL per time point) from jugular vein. Blood of each sample was transferred into plastic micro centrifuge tubes containing anticoagulant of EDTA-K2. Blood samples were centrifuged at 2,000 g for 5 minutes at 4° C. to obtain plasma.
(§9) 7. Samples Analysis: Plasma samples were analyzed using LC/MS/MS method, and pharmacokinetic parameters (half-life: t1/2; oral bioavailability: F; volume of distribution: Vss).

Data set [5] can be described thus: Adjuvant-induced arthritis model in rat: Difference of Weight Bearing test (DWB). The class given is in vivo. The following applies: SD rat, CFA-induced arthritis; PO 3 days post CFA; compared to Dexamethasone.
Data set [6] can be described thus: Adjuvant-induced arthritis model in rat: Mechanical Allodynia test (MA, Von Frey). The class given is in vivo. The following applies: SD rat, CFA-induced arthritis; PO 3 days post CFA; compared to Dexamethasone.
Data set [7] in a line: Pharmacokinetic assay in mouse (IV 3 mg/kg, PO 10 mg/kg). The class given is in vivo. Conditions: Male CD1 mouse; for Mouse F: oral bioavailability; for Mouse F / half-life: PO 10 mg/kg; for half-life / Vd: plasma; for half-life: read-out: Mouse t1/2 (converted); for Vd: volume of distribution, read-out: Mouse Vss.
Description: as §2, §3, §4, §5, §6, §7, §8, §9

[8] abbreviates: rat liver microsomes 0.5 mg/mL, 2 μM compound.

SMILES strings stand for the structures.

MCT1, sequence (P53985 whole entry): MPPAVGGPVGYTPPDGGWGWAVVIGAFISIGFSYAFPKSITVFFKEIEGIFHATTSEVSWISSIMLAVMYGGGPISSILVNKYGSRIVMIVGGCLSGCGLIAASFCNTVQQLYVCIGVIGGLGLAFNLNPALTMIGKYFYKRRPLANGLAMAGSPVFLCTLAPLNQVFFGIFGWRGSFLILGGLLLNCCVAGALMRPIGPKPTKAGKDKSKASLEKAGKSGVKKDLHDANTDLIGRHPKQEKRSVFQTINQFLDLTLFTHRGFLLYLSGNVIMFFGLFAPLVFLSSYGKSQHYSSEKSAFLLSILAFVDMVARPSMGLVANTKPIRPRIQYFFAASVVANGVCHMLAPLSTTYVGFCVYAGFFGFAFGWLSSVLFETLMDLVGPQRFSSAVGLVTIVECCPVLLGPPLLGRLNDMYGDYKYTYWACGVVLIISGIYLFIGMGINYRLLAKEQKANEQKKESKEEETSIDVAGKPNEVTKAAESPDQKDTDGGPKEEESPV
MCT1, sequence (P35613 140-385 partner): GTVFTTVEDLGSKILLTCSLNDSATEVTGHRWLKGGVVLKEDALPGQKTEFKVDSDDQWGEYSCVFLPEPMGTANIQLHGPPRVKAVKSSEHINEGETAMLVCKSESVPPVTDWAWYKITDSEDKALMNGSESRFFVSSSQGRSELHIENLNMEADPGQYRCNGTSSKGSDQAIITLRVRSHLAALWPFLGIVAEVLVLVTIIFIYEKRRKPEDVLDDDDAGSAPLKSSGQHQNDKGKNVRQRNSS
MCT4, sequence (O15427 whole entry, looked up): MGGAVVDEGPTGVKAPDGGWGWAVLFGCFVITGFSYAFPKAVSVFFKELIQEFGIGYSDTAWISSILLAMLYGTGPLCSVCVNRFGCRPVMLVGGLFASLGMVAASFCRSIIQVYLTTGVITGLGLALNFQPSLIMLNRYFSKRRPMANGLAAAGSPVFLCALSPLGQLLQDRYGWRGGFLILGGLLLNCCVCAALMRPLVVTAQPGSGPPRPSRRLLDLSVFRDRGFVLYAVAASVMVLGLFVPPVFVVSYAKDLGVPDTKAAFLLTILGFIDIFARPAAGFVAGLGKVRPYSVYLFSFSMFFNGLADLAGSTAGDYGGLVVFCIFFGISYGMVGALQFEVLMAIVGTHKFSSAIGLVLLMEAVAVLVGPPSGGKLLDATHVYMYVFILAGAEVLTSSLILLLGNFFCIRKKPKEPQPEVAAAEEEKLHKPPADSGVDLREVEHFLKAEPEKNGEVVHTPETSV
MCT4, sequence (P35613 whole entry partner, looked up): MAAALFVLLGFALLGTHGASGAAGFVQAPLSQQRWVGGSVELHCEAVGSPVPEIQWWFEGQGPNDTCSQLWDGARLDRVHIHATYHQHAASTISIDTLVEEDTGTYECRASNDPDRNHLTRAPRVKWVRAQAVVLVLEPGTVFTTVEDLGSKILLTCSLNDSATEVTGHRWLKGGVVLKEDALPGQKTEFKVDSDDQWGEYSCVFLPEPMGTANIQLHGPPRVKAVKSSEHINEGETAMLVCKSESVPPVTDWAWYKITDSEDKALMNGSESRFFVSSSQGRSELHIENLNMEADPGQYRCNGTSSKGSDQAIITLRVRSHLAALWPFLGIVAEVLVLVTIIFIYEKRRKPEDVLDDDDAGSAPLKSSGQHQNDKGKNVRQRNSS

Turning to `Cc1ccccc1-n1nc(COC(C)(C)C(=O)O)cc1-c1cccc(OC2CCC2)c1` [Example 161, 2-([5-(3-Cyclobutoxyphenyl)-1-(2-methyl-phenyl)-1H-pyrazol-3-yl]methoxy)-2-methylpropanoic acid], the IC50 at MCT4 worked out at 3.3 nM. At MCT1, this compound returned an IC50 of 22000 nM. Also, in [1], the half-life at 2 µM amounted to 3.23 h and the “Human microsome % 60 min” value is reported as 82%. Also, the half-life at 2 µM in [2] (setting [8]) is 4.32 h. The “Rat microsome % 60 min” value in data set [2] was 80%. Besides, in [3], the “Mouse microsome t1/2, min” value was “∞” and the “Mouse microsome % 60 min” value is 99%. Further, in [4], the “Rat F” value came to 61%, the half-life was 5.7 h and the Vd stood at 0.32 L/kg. In addition, the “Difference in Weight Bearing, Minimal Efficacious Dose” value in data set [5] is listed as not above 10 mg/kg. The “Mechanical Allodynia (Von Frey), Minimal Efficacious Dose” value in data set [6] is reported as not above 10 mg/kg.

For `CC(C)(OCc1cc(-c2cccc(OC3CCC3)c2)n(-c2ccccc2Cl)n1)C(=O)O` [Example 175, 2-([1-(2-Chlorophenyl)-5-(3-cyclobutoxy-phenyl)-1H-pyrazol-3-yl]methoxy)-2-methylpropanoic acid], in data set [1], the half-life at 2 µM was determined as 3.53 h and the “Human microsome % 60 min” value is given as 83%. Also, in [2] (setting [8]), the half-life at 2 µM turned out to be 5.25 h. Moreover, the “Rat microsome % 60 min” value in [2] stood at 87%. Also, in data set [3], the half-life at 2 µM amounted to 11.8 h and the “Mouse microsome % 60 min” value came out at 94%. Moreover, in data set [4], the “Rat F” value is listed as 48%, the half-life is 4.2 h and the Vd turned out to be 0.4 L/kg. In addition, the “Difference in Weight Bearing, Minimal Efficacious Dose” value in data set [5] was more than 10 mg/kg. Further, in data set [6], the “Mechanical Allodynia (Von Frey), Minimal Efficacious Dose” value is listed as more than 10 mg/kg.

For `CCOc1ccccc1Cn1nc(COC(C)(C)C(=O)O)cc1-c1cc(OC)cc(OC)c1` [Example 211], at MCT4, the IC50 was 2.4 nM. For the same compound, it took 20000 nM to reach half-maximal inhibition on MCT1 (IC50). Further, in data set [1], the half-life at 2 µM was 3 h and the “Human microsome % 60 min” value worked out at 78%. Besides, the half-life at 2 µM in [2] (setting [8]) worked out at 1.22 h. For the same compound, the “Rat microsome % 60 min” value in data set [2] is listed as 57%. Further, in [3], the half-life at 2 µM was determined as 0.817 h and the “Mouse microsome % 60 min” value turned out to be 43%. Further, in [7], the “Mouse F” value was determined as 57%, the half-life was 1.9 h and the Vd was 1.5 L/kg. Further, in data set [4], the “Rat F” value was 55%, the half-life is 3.6 h and the Vd was 3.6 L/kg.

As for `CCn1ncc2ccc(-c3cc(COC(C)(C)C(=O)O)nn3-c3ccccc3N3CCC3)cc21` [Example 228, 2-([1-(2-(Azetidin-1-yl)phenyl]-5-(1-ethyl-1H-indazol-6-yl)-1H-pyrazol-3-yl]-methoxy)-2-methylpropanoic acid], the 50% inhibitory concentration (IC50) against MCT4 amounted to 5.9 nM. Besides, on MCT1, it took 31000 nM to reach half-maximal inhibition (IC50). In data set [1], the half-life at 2 µM was 2.17 h and the “Human microsome % 60 min” value is 71%. Besides, the half-life at 2 µM in data set [2] (setting [8]) was found to be 6.58 h. The “Rat microsome % 60 min” value in [2] worked out at 91%. Moreover, in data set [3], the half-life at 2 µM was found to be 12.8 h and the “Mouse microsome % 60 min” value was found to be 96%. For the same compound, in data set [7], the “Mouse F” value was determined as 100%, the half-life is 4.4 h and the Vd was 2 L/kg. Besides, in data set [4], the “Rat F” value came out at 94%, the half-life is 3.1 h and the Vd came out at 1.3 L/kg.

As for `CCn1ncc2ccc(-c3cc(CO[C@@](C)(CC)C(=O)O)nn3Cc3ccccc3Cl)cc21` [Example 257, (S)-2-((1-(2-chlorobenzyl)-5-(1-ethyl-1H-indazol-6-yl)-1H-pyrazol-3-yl)methoxy)-2-methylbutanoic acid], it took 0.35 nM to reach half-maximal inhibition against MCT4 (IC50). At MCT1, this compound registered an IC50 of 19000 nM. Moreover, in data set [1], the half-life at 2 µM came out at 21.6 h and the “Human microsome % 60 min” value was found to be 96%. Also, the “Rat microsome t1/2, min” value in [2] (setting [8]) is listed as “∞”. Also, the “Rat microsome % 60 min” value in [2] came to 103%. For the same compound, in data set [3], the “Mouse microsome t1/2, min” value is reported as “∞” and the “Mouse microsome % 60 min” value was 102%. Further, in [7], the “Mouse F” value came to 76%, the half-life was 3.6 h and the Vd came out at 2.8 L/kg. Also, in [4], the “Rat F” value was 76%, the half-life was 2.7 h and the Vd was 1.6 L/kg.

(Values after patent publication US10214492B2, “Heterocyclic inhibitors of MCT4” (Vettore, LLC, priority 2016, dated 2019).)
